Data: paper PMC8602723, “Comparative assessment of antimicrobial, antiradical and cytotoxic activities of cannabidiol and its propyl analogue cannabidivarin” (Scientific Reports, 2021)
pIC50: −log10 of the molar value. Read-outs that look alike come from different tables or passages of the source.

Tests used:
Caco-2 cells [1] = assay: MTT assay (mitochondrial metabolism); assay type: cell-based, human; conditions: for LOAEC MTT assay: Caco-2, same value after each exposure time (24, 48, 72 h); for pIC50: Homo sapiens, read-out: IC50 MTT assay
From the text: (§1) MTT assay is the most commonly used method for high-throughput identification of the antiproliferative effects of compounds on cultured cells and is indirectly correlated with mitochondria-dependent apoptosis progression[59]–[61]. The production of reducing equivalents such as NADH in metabolically active cells is an indicator of “cell redox activity”, indirectly reflecting the number of viable cells[60],[61] and the mitochondrial metabolic rate in cells[62],[63].
(§2) A549, Caco-2, HepG2 and TelCOFS02MA cells (1 × 10^4 cells/well), and MDA-MB-231 cells (0.5 × 10^4 cells/well) were seeded in 100 µL of fresh medium into 96-well plates (TC-Plate 96 wells, Sarstedt, Verona, Italy) in quadruplicate for 24 h at 37 °C in a humidified atmosphere of 95% air plus 5% CO2. Then, the medium was removed and replaced with 200 µL of media with different concentrations of CBD (5–80 µM, dilution factor [DF] equal to 2) and CBDV (5.5–88 µM, DF = 2) chosen on the basis of range-finding tests (0.5, 5, and 50 mg/L). We chose 1.56–25 mg/L to be tested and, to make easier the comparison between the two cannabinoids activities, the concentrations were reported in [μM]. In all experiments, negative controls (wells containing cells exposed only to the medium) and solvent controls (wells containing cells exposed to 2.5% methanol) were included. The plates were incubated at 37 °C for three exposure times: 24, 48 and 72 h (different plates were prepared for each specific time point). Then, MTT solution (5 mg/mL) was added to each well, and the plates were re-incubated for 4 h at 37 °C. The culture medium was removed, and 2-propanol was used to dissolve formazan crystals. The absorbance of formazan was measured spectrophotometrically at 590 nm using an automated microplate reader (Synergy H1, Biotek, Winooski, USA). The results are reported as the percentages of cells with inhibited proliferation, as determined by the link between the inhibition of mitochondrial metabolic activity and proliferation. The results were calculated with the following formula:1 IC%=1-OD590sample/OD590negativecontrol·100
(§3) Furthermore, IC50 values (concentrations of the sample used to obtain an inhibition of 50% of cell growth/metabolic activity) were calculated.
(§4) All results from five independent experiments are expressed as the IC50 or EC50 as determined by analysis with Prism 5 software (GraphPad Inc., San Diego, CA, USA) and nonlinear regression (log agonist vs. normalized response-variable slope) with a 95% confidence range. Lowest observed adverse effect concentrations (LOAECs) were calculated by one-way ANOVA and Dunnett’s comparison test. Differences compared to the controls were considered significant as follows: *p < 0.05, **p < 0.001 and ***p < 0.0001.

TelCOFS02MA cells [2] = assay: MTT assay (mitochondrial metabolism); assay type: cell-based, human; conditions: for pIC50: Homo sapiens, read-out: IC50 MTT assay
From the text: as §1, §2, §3, §4

MDA-MB-231 cells [3] = assay: MTT assay (mitochondrial metabolism); assay type: cell-based, human; conditions: for pIC50: Homo sapiens, read-out: IC50 MTT assay
From the text: as §1, §2, §3, §4

[4] = ABTS assay (radical scavenging); conditions: for TEAC (Trolox equivalent antioxidant capacity), ABTS: EC50 Trolox/EC50 sample; for ABTS scavenging capacity less than the capacity of Trolox: compared with Trolox
Method: An ABTS assay was performed following the procedure described by Lavorgna et al. 2019[66]. The cationic ABTS radical (ABTS^+) was generated by oxidizing ABTS (7 mM) with potassium persulfate (140 mM K2S2O8), and the mixture was incubated for 12–16 h in the dark. The ABTS^+ working solution was diluted to an absorbance of […] OD at 734 nm. […] Distilled water was used for the blank, Trolox was used for the standard control, and methanol was used for the solvent control.
The results are expressed as the median effective concentration (EC50). Furthermore, Trolox equivalent antioxidant capacity (TEAC) values were calculated following the procedure used by Shimamura end colleagues[68]:5 TEAC=EC50Trolox/EC50sample
as §4

Caco-2 cells [5] = assay: BrdU-ELISA (DNA synthesis inhibition); assay type: cell-based, human; conditions: for pIC50: Homo sapiens, read-out: IC50 BrdU-ELISA
Method: (§5) BrdU-ELISA was performed according to the protocol described by Lehmann and collaborators, and the results were used to evaluate the inhibition of DNA synthesis. A total of 1 × 10^4 cells/well were seeded in 100 µL of fresh medium into 96-well plates in triplicate at 37 °C in a humidified atmosphere of 95% air plus 5% CO2 for 24 h. Then, the medium was removed and replaced with 200 µL of medium with the same concentrations of CBD and CBDV that had been used in the previous test. In all experiments, blanks (wells with medium and without cells), negative controls (with only medium) and solvent controls (2.5% methanol) were included. The plates were incubated at 37 °C for 72 h. Then, 20 µL of 100 µM BrdU labelling solution was added to each well and incubated for 2 h at 37 °C. After removing the labelling solution, 200 µl of DNA fixing/denaturing solution was added to each well and incubated for 30 min at room temperature. After its discharge, 100 µL of the anti-BrdU-POD antibody solution [0.075 U/mL] was added to each well and incubated for 90 min at room temperature. After several washing steps with 1X PBS (200–300 µL/well), 100 µl of tetramethylbenzidine (TMB) was added to each well and incubated for 20–30 min (sufficient time for the colour change). The incorporation of BrdU into DNA was quantified spectrophotometrically at 370 nm. […] The mean absorbance of the control cells represented 100% cell proliferation, and the mean absorbance of the treated cells was related to the control values to determine cell sensitivity. Inhibition (%) of DNA synthesis/cell viability was determined as follows:2 IC%=1-OD370sample/OD370negativecontrol·100
(§6) IC50 values (representing the median concentration at which DNA synthesis and cell viability were reduced by 50%) were calculated.
as §4

TelCOFS02MA cells [6] = assay: BrdU-ELISA (DNA synthesis inhibition); assay type: cell-based, human; conditions: for pIC50: Homo sapiens, read-out: IC50 BrdU-ELISA
Method: as §5, §6, §4

Hep G2 cells = assay: BrdU-ELISA (DNA synthesis inhibition); assay type: cell-based, human; conditions: for pIC50: Homo sapiens, read-out: IC50 BrdU-ELISA
Method: as §5, §6, §4

A549 cells = assay: BrdU-ELISA (DNA synthesis inhibition); assay type: cell-based; conditions: Homo sapiens, read-out: IC50 BrdU-ELISA
Method: as §5, §6, §4

MDA-MB-231 cells [7] = assay: BrdU-ELISA (DNA synthesis inhibition); assay type: cell-based; conditions: Homo sapiens, read-out: IC50 BrdU-ELISA
Method: as §5, §6, §4

[8] = Caco-2, 72 h exposure, 95% confidence interval in brackets
[9] = TelCOFS02MA, 72 h exposure, 95% confidence interval in brackets
[10] = MDA-MB-231, 72 h exposure, 95% confidence interval in brackets

## C=C(C)[C@@H]1CCC(C)=C[C@H]1c1c(O)cc(CCC)cc1O [CBDV, cannabidivarin]
Caco-2 cells [1]
  LOAEC MTT assay: 44 µM
Caco-2 cells [1]; Caco-2, 72 h
  pIC50: 4.34
TelCOFS02MA cells [2]; 72 h
  pIC50: 4.37
TelCOFS02MA cells [2]; TelCOFS02MA, 24 h
  LOAEC MTT assay: 88 µM
TelCOFS02MA cells [2]; TelCOFS02MA, 48 h
  LOAEC MTT assay: 44 µM
TelCOFS02MA cells [2]; TelCOFS02MA, 72 h
  LOAEC MTT assay: 11 µM
MDA-MB-231 cells [3]; MDA-MB-231, 72 h
  pIC50: 4.42
MDA-MB-231 cells [3]; MDA-MB-231, 24 h
  LOAEC MTT assay: 44 µM
MDA-MB-231 cells [3]; MDA-MB-231, 48 h
  LOAEC MTT assay: 22 µM
[4]
  TEAC (Trolox equivalent antioxidant capacity), ABTS: 0.27
  ABTS scavenging capacity less than the capacity of Trolox: 73%
Caco-2 cells [5]; Caco-2, 72 h
  LOAEC BrdU-ELISA: 22 µM
  pIC50: 4.39
TelCOFS02MA cells [6]; 72 h
  pIC50: 4.16
TelCOFS02MA cells [6]; TelCOFS02MA, 72 h
  LOAEC BrdU-ELISA: 44 µM
Hep G2 cells; Hep G2, 72 h
  LOAEC BrdU-ELISA: 22 µM
Hep G2 cells; HepG2, 72 h
  pIC50: 4.33
A549 cells; A549, 72 h
  pIC50: 4.31
MDA-MB-231 cells [7]; MDA-MB-231, 72 h
  pIC50: 4.33

## C=C(C)[C@@H]1CCC(C)=C[C@H]1c1c(O)cc(CCCCC)cc1O [CBD, Cannabidiol]
Caco-2 cells [1]
  LOAEC MTT assay: 20 µM
Caco-2 cells [1]; [8]
  pIC50: 4.45
TelCOFS02MA cells [2]; [9]
  pIC50: 4.50
TelCOFS02MA cells [2]; TelCOFS02MA, same value for the entire treatment period (24, 48, 72 h)
  LOAEC MTT assay: 20 µM
MDA-MB-231 cells [3]; [10]
  pIC50: 4.59
MDA-MB-231 cells [3]; MDA-MB-231, 24 h
  LOAEC MTT assay: 20 µM
MDA-MB-231 cells [3]; MDA-MB-231, 48 h
  LOAEC MTT assay: 10 µM
[4]
  TEAC (Trolox equivalent antioxidant capacity), ABTS: 0.21
  ABTS scavenging capacity less than the capacity of Trolox: 79%
Caco-2 cells [5]; [8]
  pIC50: 4.48
TelCOFS02MA cells [6]; [9]
  pIC50: 4.31
Hep G2 cells; HepG2, Hep G2, 72 h exposure, 95% confidence interval in brackets
  pIC50: 4.41
A549 cells; A549, 72 h exposure, 95% confidence interval in brackets
  pIC50: 4.39
MDA-MB-231 cells [7]; [10]
  pIC50: 4.42
